Experiments:
[1] = tested on: GSH in peripheral blood lymphocytes (PBL); assay: HPLC assay of GSH in peripheral blood lymphocytes (PBL) of SLE patients; type: in vivo, human
Procedure: Reduced glutathione (GSH) was measured by reverse phase ion-exchange HPLC using UV detection at 365 nm, as described in Gergely, P. J. et al., “Mitochondrial hyperpolarization and ATP depletion in patients with systemic lupus erythematosus,” Arth. Rheum., 46: 175-190 (2002); and Hanczko, R. et al., “Prevention of hepatocarcinogenesis and acetaminophen-induced liver failure in transaldolase-deficient mice by N-acetylcysteine,” J. Clin. Invest., 119: 1546-1557 (2009). The disclosures of each of these references are incorporated by reference herein in their entirety.
GSH was measured in whole blood and peripheral blood lymphocytes (PBL) before (visit 1; 0 h) and after the first NAC/placebo dose (visit 1; 3 h and 6 h) and upon each monthly follow-up visit (visits 2-4: between 9-11 am after having taken the last NAC/placebo capsule 8 pm the night before), and after 1 month wash-out (visit 5). HPLC analysis required ˜0.25 ml of whole blood and 5×10^6 PBL which were obtained from a total of 10 ml of blood collected at each time point.

[2] = Noszal et al. (2000); cited from earlier work
[3] = tested on: DN T cells; assay: T-cell subset analysis by flow cytometry (DN T cells); type: in vivo, human; conditions: after 3 months; baseline 6.2±0.5%; p=0.043
Procedure: Unstimulated cells and cells stimulated with CD3/CD28 for 16 h were examined and cell death pathway selection in T cells was measured by concurrent staining with annexin V-Alexa 647 and propidium iodide (PrI) as well as cell type-specific antigens. T-cell subsets were analyzed by staining with antibodies to CD4, CD8, and CD25. B cells were identified by CD 19 staining

[4] = tested on: SLE patients; assay: ADHD Self-Report Scale (ASRS) in SLE patients treated with NAC; type: in vivo, human
Procedure: The clinical trial design, eligibility criteria, randomization, blinding, monitoring of safety, tolerance and efficacy on NAC in patients with SLE was as described in Example 1, approved by the Food and Drug Administration (IND No: 101,320; clinicaltrials.gov identifier: NCT00775476). As an addendum to the Example 1 study, ASRS was evaluated as an exploratory outcome in 24 SLE patients randomized to receive orally either placebo or NAC in one of two treatment arms: 1,200 mg or 2,400 mg twice daily for three months. 12 patients were enrolled per dosing group, 9 received NAC while 3 received placebo. Due to missing data, 6 patients enrolled in the placebo arm and 8 patients enrolled into each of the two NAC treatment arms could be evaluated.
The ASRS is an 18-item scale that is used to assess the current status of the 18 DSM-IV symptoms of ADHD in adults. (Kessler, R. C. et al., “The World Health Organization Adult ADHD Self-Report Scale (ASRS): a short screening scale for use in the general population,” Psychol. Med., 35(2): 245-256 (2005)). Symptoms are rated on a frequency basis: 0=never, 1=rarely, 2=sometimes, 3=often, and 4=very often. Nine items assess inattention and nine assess hyperactivity-impulsivity. The 9 inattentive symptoms are summed to create the ASRS A subscale; the 9 hyperactive-impulsive symptoms are summed to compute the ASRS B subscale. These two scales are summed to compute the total score. For all scales, higher scores indicate more symptoms. The scale has high concurrent validity with a rater-administered ADHD symptom scale. (Adler, L. A. et al., “Validity of Pilot Adult ADHD Self-Report Scale (ASRS) to Rate Adult ADHD Symptoms,” Ann Clin. Psychiatry 18(3): 145-148 (2006)). As described in Example 1, SLE disease activity was assessed by using the British Isles Lupus Assessment Group (BILAG) (Isenberg, D. A. et al., “BILAG 2004. Development and initial validation of an updated version of the British Isles Lupus Assessment Group's disease activity index for patients with systemic lupus erythematosus,” Rheumatology, 44(7): 902-906 (2005)) and Systemic Lupus Erythematosus Disease Activity Index (SLEDAI) (Hochberg, M. C., “Updating the American College of Rheumatology revised criteria for the classification of systemic lupus erythematosus,” Arth. Rheum., 40(9): 1725 (1997)). Fatigue was estimated using the Fatigue Assessment Scale (FAS) (Michielsen, H. J. et al., “Psychometric qualities of a brief self-rated fatigue measure: The Fatigue Assessment Scale,” J. Psychosom. Res., 54(4): 345-352 (2003)).
Overall clinical effectiveness of NAC relative to placebo was analyzed with multilevel modeling as implemented in the STATA routine XTMIXED (from StataCorp, College Station, Tex.), with the three nested levels being drug group, subject within drug group and study visit within subject. All models included fixed effects for drug group, study visit and the drug group by study visit interaction along with random intercepts at each design level. […] Two-tailed paired t-test was used to assess the effects of placebo and of each and all NAC doses on clinical indices recorded on visits 2-5 relative to visit 1; p<0.05 was considered significant. Patients and controls were compared with two-tailed unpaired t-test. Correlations and t-test were performed with Prism (GraphPad, San Diego, Calif.).

[5] = NAC Dose 3, end of 3-month treatment

CC(=O)N[C@@H](CS)C(=O)O [NAC, N-acetyl-L-cysteine]
GSH in PBL ([1]; after 3-month treatment with NAC doses 2 and 3 considered together (visit 4; p=0.027)): increased | GSH in PBL ([1]; after one month washout, NAC dose 3 or doses 2 and 3 combined): dropped below baseline | GSH in PBL ([1]; single NAC dose of 1.2 g, after 6 h (p=0.022)): increased | GSH in PBL ([1]; single NAC dose of 2.4 g, after 3 h (p=0.032) and 6 h (p=0.003)): increased | half-cell potential, NAC thiol/disulfide pair [2]: about +63 mV | DN T-cell frequency [3]: 5.3±0.5% | cognitive/inattentive ASRS A scores ([4]; NAC Dose 2 (2.4 g/day), z=−3.31, p=0.001): reduced | hyperactivity/impulsive components of ASRS scores (ASRS B scores) ([4]; NAC Dose 2 and 3, alone or combined (data not shown)): not affected | ASRS Total scores ([4]; NAC Dose 3 (4.8 g/day), after 2 and 3 months of treatment): diminished | cognitive/inattentive ASRS A scores ([4]; NAC Dose 3 (4.8 g/day), z=−4.04, p<0.0001): reduced | standardized mean difference effect size (Cohen's D), ASRS A scores [4, 5]: 0.71 | standardized mean difference effect size (Cohen's D), ASRS B scores [4, 5]: 0.44 | standardized mean difference effect size (Cohen's D), ASRS Total scores [4, 5]: 0.72 | ASRS Total scores ([4]; NAC Doses 2 and 3 combined, after 3 months): reduced | reduction in ASRS Total scores relative to placebo (multilevel modeling) ([4]; NAC Doses 2 and 3 combined, XTMIXED z=−2.09, p=0.037): greater | cognitive/inattentive ASRS A scores ([4]; NAC Doses 2 and 3 combined, z=−3.41, p=0.001): reduced
